Experiments:
[1] = tested on: MIA PaCa-2 cells; assay: MTT assay, cancer cell growth inhibition (MIA PaCa-2); type: cell-based; conditions: Homo sapiens, MIA PaCa-2, 168 h, 7 days of treatment, read-out: MiaPaCa IC50
Description: Measurement of cancer cell growth inhibition of the compounds of invention Cytotoxicity of the compounds was assessed by MTT assay. In brief, MIA PaCa-2 cells or BxPc3 cells were seeded in 96-well microtitre plates at density of 200 cells/well. After overnight attachment, cells were treated with compounds at indicated concentration. After 7 days of treatment, MTT solution (3 mg/ml, 20 μl) was added to each well and cells were incubated for 3 h at 37° C. After incubation, media from each well was removed and the dark blue formazan crystals formed by live cells were dissolved in DMSO ([…] per well). The absorbance intensity was measured at 570 nm on a microplate reader (Molecular Devices, Sunnyvale, Calif., USA). The half maximal inhibitory concentration (IC50) value were calculated using 4 or 6 dots curve plotted with Cumulative Gaussian equation or Log(inhibitor) vs. response equation in GraphPad Prism.

[2] = tested on: UM16 cell line; assay: Nascent RNA sequencing (Bru-seq), gene fold change; type: cell-based; conditions: 5 μM, 4 hours
From the text: Consistent with this observation, there are also massive metabolite pathways influenced including starch and sucrose metabolism, glycolysis and gluconeogenesis, purine metabolism, pyrimidine metabolism, N-glycan biosynthesis, etc.

With `CCOC(=O)[C@@H]1CCCN(S(=O)(=O)c2ccc(S(=O)(=O)N(CC)CC)cc2)C1` [DX2-201, ethyl (R)-1-((4-(N,N-diethylsulfamoyl)phenyl)sulfonyl)piperidine-3-carboxylate] the IC50 [1] was 0.37 ± 0.06 µM, the “Fold change AC008521.2” value ([2]; non-coding RNA, downregulated) was 0.1876 and the “Fold change AC019257.2” value ([2]; non-coding RNA, downregulated) was 0.2345. For the same molecule, the “Fold change AC091133.4” value ([2]; non-coding RNA, downregulated) was 0.2345, the “Fold change AC092916.2” value ([2]; non-coding RNA, downregulated) was 0.1706 and the “Fold change AC106037.1” value ([2]; non-coding RNA, downregulated) was 0.2345. The “Fold change AL096870.2” value ([2]; non-coding RNA, downregulated) was 0.02465, the “Fold change BX679664.2” value ([2]; non-coding RNA, downregulated) was 0.1876 and the “Fold change C1orf50” value ([2]; non-coding RNA, downregulated) was 0.1876. For the same molecule, the “Fold change MIR545” value ([2]; non-coding RNA, downregulated) was 0.1876, the “Fold change MIR5000” value ([2]; non-coding RNA, downregulated) was 0.05752 and the “Fold change RN7SL128P” value ([2]; non-coding RNA, downregulated) was 0.1876. For the same molecule, the “Fold change RN7SL388P” value ([2]; non-coding RNA, downregulated) was 0.2085, the “Fold change RN7SL589P” value ([2]; non-coding RNA, downregulated) was 0.2165 and the “Fold change RN7SL833P” value ([2]; non-coding RNA, downregulated) was 0.2345. For the same molecule, the “Fold change RNU1-19P” value ([2]; non-coding RNA, downregulated) was 0.1564, the “Fold change RNU1-73P” value ([2]; non-coding RNA, downregulated) was 0.09381 and the “Fold change RNU6-122P” value ([2]; non-coding RNA, downregulated) was 0.04314. For the same molecule, the “Fold change RNU6-398P” value ([2]; non-coding RNA, downregulated) was 0.03451, the “Fold change RNU6-519P” value ([2]; non-coding RNA, downregulated) was 0.1564 and the “Fold change RNU6-548P” value ([2]; non-coding RNA, downregulated) was 0.05752. For the same molecule, the “Fold change SNORA73” value ([2]; non-coding RNA, downregulated) was 0.2345, the “Fold change TERC” value ([2]; non-coding RNA, downregulated) was 0.04314 and the “Fold change Y_RNA” value ([2]; non-coding RNA, downregulated) was 0.02876. For the same molecule, the “Fold change Z99127.3” value ([2]; non-coding RNA, downregulated) was 0.1876, the “Fold change ZBTB40-IT1” value ([2]; non-coding RNA, downregulated) was 0.2345 and the “Fold change AC007686.1” value ([2]; non-coding RNA, upregulated) was 2.01. For the same molecule, the “Fold change AC007952.4” value ([2]; non-coding RNA, upregulated) was 2.345, the “Fold change AC008687.3” value ([2]; non-coding RNA, upregulated) was 2.033 and the “Fold change AC034198.2” value ([2]; non-coding RNA, upregulated) was 2.345. The “Fold change AC105020.4” value ([2]; non-coding RNA, upregulated) was 1.782, the “Fold change AC139887.1” value ([2]; non-coding RNA, upregulated) was 2.064 and the “Fold change AL136982.3” value ([2]; non-coding RNA, upregulated) was 2.217. For the same molecule, the “Fold change AL161729.3” value ([2]; non-coding RNA, upregulated) was 1.993, the “Fold change AL627171.1” value ([2]; non-coding RNA, upregulated) was 1.841 and the “Fold change AL645939.5” value ([2]; non-coding RNA, upregulated) was 1.876. For the same molecule, the “Fold change AP001527.2” value ([2]; non-coding RNA, upregulated) was 2.217, the “Fold change AP001619.1” value ([2]; non-coding RNA, upregulated) was 1.62 and the “Fold change AP003168.2” value ([2]; non-coding RNA, upregulated) was 1.689. The “Fold change DPRXP4” value ([2]; non-coding RNA, upregulated) was 3.19, the “Fold change EIF5AP3” value ([2]; non-coding RNA, upregulated) was 1.876 and the “Fold change HMGN1P15” value ([2]; non-coding RNA, upregulated) was 2.111. The “Fold change RNA5SP379” value ([2]; non-coding RNA, upregulated) was 2.814, the “Fold change RNU6-182P” value ([2]; non-coding RNA, upregulated) was 20.4 and the “Fold change RNU6-396P” value ([2]; non-coding RNA, upregulated) was 1.876. The “Fold change RNU6-531P” value ([2]; non-coding RNA, upregulated) was 2.814, the “Fold change RNU6-564P” value ([2]; non-coding RNA, upregulated) was 2.814 and the “Fold change RNU6-1272P” value ([2]; non-coding RNA, upregulated) was 25.5. The “Fold change RNY3P2” value ([2]; non-coding RNA, upregulated) was 1.876, the “Fold change SNORD124” value ([2]; non-coding RNA, upregulated) was 1.876 and the “Fold change Y_RNA” value ([2]; non-coding RNA, upregulated) was 15.3. For the same molecule, the “Fold change A2ML1” value ([2]; protein-coding, downregulated) was 0.582, the “Fold change ARRDC4” value ([2]; protein-coding, downregulated) was 0.4315 and the “Fold change BDKRB2” value ([2]; protein-coding, downregulated) was 0.6044. For the same molecule, the “Fold change DGAT2” value ([2]; protein-coding, downregulated) was 0.5129, the “Fold change DPAGT1” value ([2]; protein-coding, downregulated) was 0.6034 and the “Fold change FAM86C1” value ([2]; protein-coding, downregulated) was 0.6053. The “Fold change FAM86HP” value ([2]; protein-coding, downregulated) was 0.5946, the “Fold change FAM200A” value ([2]; protein-coding, downregulated) was 0.5595 and the “Fold change FOXA2” value ([2]; protein-coding, downregulated) was 0.6075. The “Fold change G0S2” value ([2]; protein-coding, downregulated) was 0.4666, the “Fold change GGCT” value ([2]; protein-coding, downregulated) was 0.6012 and the “Fold change HLF” value ([2]; protein-coding, downregulated) was 0.4727. The “Fold change INTS5” value ([2]; protein-coding, downregulated) was 0.4515, the “Fold change L3HYPDH” value ([2]; protein-coding, downregulated) was 0.6301 and the “Fold change PCED1A” value ([2]; protein-coding, downregulated) was 0.576. For the same molecule, the “Fold change PLLP” value ([2]; protein-coding, downregulated) was 0.5843, the “Fold change POLR2J4” value ([2]; protein-coding, downregulated) was 0.4775 and the “Fold change RRS1” value ([2]; protein-coding, downregulated) was 0.5686. For the same molecule, the “Fold change SCARNA5” value ([2]; protein-coding, downregulated) was 0.4376, the “Fold change SLC5A6” value ([2]; protein-coding, downregulated) was 0.6234 and the “Fold change SNHG21” value ([2]; protein-coding, downregulated) was 0.5497. For the same molecule, the “Fold change SNORA62” value ([2]; protein-coding, downregulated) was 0.5968, the “Fold change SNORA71C” value ([2]; protein-coding, downregulated) was 0.6023 and the “Fold change TMED1” value ([2]; protein-coding, downregulated) was 0.6232. For the same molecule, the “Fold change TXNIP” value ([2]; protein-coding, downregulated) was 0.4997, the “Fold change ANKRD37” value ([2]; protein-coding, upregulated) was 2.182 and the “Fold change ARG2” value ([2]; protein-coding, upregulated) was 2.569. For the same molecule, the “Fold change ARHGAP30” value ([2]; protein-coding, upregulated) was 1.728, the “Fold change ARRDC3” value ([2]; protein-coding, upregulated) was 1.707 and the “Fold change BNIP3L” value ([2]; protein-coding, upregulated) was 1.723. The “Fold change CCNG2” value ([2]; protein-coding, upregulated) was 1.668, the “Fold change CREBRF” value ([2]; protein-coding, upregulated) was 1.676 and the “Fold change ERRFI1” value ([2]; protein-coding, upregulated) was 1.77. The “Fold change FOXO6” value ([2]; protein-coding, upregulated) was 1.954, the “Fold change HDAC5” value ([2]; protein-coding, upregulated) was 1.811 and the “Fold change KLHL24” value ([2]; protein-coding, upregulated) was 2.336. The “Fold change LOXL4” value ([2]; protein-coding, upregulated) was 1.73, the “Fold change MXD4” value ([2]; protein-coding, upregulated) was 1.812 and the “Fold change MXI1” value ([2]; protein-coding, upregulated) was 1.785. The “Fold change NDRG1” value ([2]; protein-coding, upregulated) was 2.874, the “Fold change PDK1” value ([2]; protein-coding, upregulated) was 1.779 and the “Fold change PPP1R3C” value ([2]; protein-coding, upregulated) was 1.699. The “Fold change PRDM1” value ([2]; protein-coding, upregulated) was 1.748, the “Fold change RNF122” value ([2]; protein-coding, upregulated) was 1.915 and the “Fold change SEMA3B” value ([2]; protein-coding, upregulated) was 1.668. For the same molecule, the “Fold change SOX12” value ([2]; protein-coding, upregulated) was 1.903, the “Fold change UPRT” value ([2]; protein-coding, upregulated) was 1.74 and the “Fold change VLDLR” value ([2]; protein-coding, upregulated) was 1.741. For the same molecule, the “Fold change YPEL1” value ([2]; protein-coding, upregulated) was 1.706 and the “Fold change ZNF546” value ([2]; protein-coding, upregulated) was 1.757.

Reference: patent US20230212122A1, “MITOCHONDRIAL TARGETING COMPOUNDS FOR THE TREATMENT OF ASSOCIATED DISEASES” (The Regents of the University of Michigan, priority 2020, published 2023)
